{"source": "patent US9394282B2", "about": "“Pyrazole carboxamides as Janus kinase inhibitors” (Merck Sharp & Dohme Corp., priority 2011, dated 2016)"}
{"target": "JAK1 (Homo sapiens (Human), UniProt P23458)", "sequence (P23458 875-1153)": "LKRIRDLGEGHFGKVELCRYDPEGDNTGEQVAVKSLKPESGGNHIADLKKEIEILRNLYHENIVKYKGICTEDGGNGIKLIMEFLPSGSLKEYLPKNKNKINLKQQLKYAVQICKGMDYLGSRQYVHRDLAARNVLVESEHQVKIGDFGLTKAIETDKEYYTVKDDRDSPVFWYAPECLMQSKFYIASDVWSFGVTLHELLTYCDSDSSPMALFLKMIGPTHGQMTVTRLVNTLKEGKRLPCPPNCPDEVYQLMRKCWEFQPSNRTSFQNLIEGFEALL", "assay": "Jak biochemical HTRF assay, JAK1", "conditions": "recombinant purified GST-tagged catalytic domain; HTRF format; [ATP] 31.8 μM", "excerpt": "(§1) Jak Biochemical HTRF Assay Protocol\n(§2) Subsequent reagent additions employed an Agilent Bravo.", "units": {"IC50": "nM"}}
{"molecule": "CC(OC(=O)N1CC[C@@H](C#N)C(n2cc(C(N)=O)c(Nc3ccc(F)cc3)n2)C1)C1CC1", "note": "(mixture of isomers) [Example 5-73, 1-cyclopropylethyl (3S,4R and 3R,4S)-3-{4-carbamoyl-3-[(4-fluorophenyl)amino]-1H-pyrazol-1-yl}-4-cyanopiperidine-1-carboxylate]", "IC50": 6}
{"molecule": "N#C[C@@H]1CN(C(=O)OCCCc2ccccc2)CC[C@H]1n1cc(C(N)=O)c(Nc2ccc(F)cc2)n1", "note": "(racemic) [Example 5-3, 3-phenylpropyl (3R,4R and 3S,4S)-4-{4-carbamoyl-3-[(4-fluorophenyl)amino]-1H-pyrazol-1-yl}-3-cyanopiperidine-1-carboxylate]", "IC50": 44}
{"molecule": "CC(C)(C)OC(=O)N1CC[C@H](n2cc(C(N)=O)c(Nc3ccccc3)n2)[C@H](C#N)C1", "note": "(mixture of isomers) [Example 1-1, tert-butyl(3R,4S and 3S,4R)-4-[4-(aminocarbonyl)-3-anilino-1H-pyrazol-1-yl]-3-cyanopiperidine-1-carboxylate]", "IC50": 108}
{"target": "JAK2 (Homo sapiens (Human), UniProt O60674)", "sequence (O60674 849-1124)": "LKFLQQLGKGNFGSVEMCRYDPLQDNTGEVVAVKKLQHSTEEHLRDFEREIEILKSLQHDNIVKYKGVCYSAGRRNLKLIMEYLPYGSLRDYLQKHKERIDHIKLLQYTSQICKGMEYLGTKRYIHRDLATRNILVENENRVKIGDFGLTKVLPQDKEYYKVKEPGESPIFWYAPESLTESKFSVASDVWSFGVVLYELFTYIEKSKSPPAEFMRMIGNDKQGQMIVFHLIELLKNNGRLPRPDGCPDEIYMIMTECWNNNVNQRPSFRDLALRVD", "assay": "Jak biochemical HTRF assay, JAK2", "conditions": "recombinant purified GST-tagged catalytic domain; HTRF format; [ATP] 8.5 μM", "excerpt": "as §1, §2", "units": {"IC50": "nM"}}
{"molecule": "CC(OC(=O)N1CC[C@@H](C#N)C(n2cc(C(N)=O)c(Nc3ccc(F)cc3)n2)C1)C1CC1", "note": "(mixture of isomers) [Example 5-73, 1-cyclopropylethyl (3S,4R and 3R,4S)-3-{4-carbamoyl-3-[(4-fluorophenyl)amino]-1H-pyrazol-1-yl}-4-cyanopiperidine-1-carboxylate]", "IC50": 77}
{"molecule": "N#C[C@@H]1CN(C(=O)OCCCc2ccccc2)CC[C@H]1n1cc(C(N)=O)c(Nc2ccc(F)cc2)n1", "note": "(racemic) [Example 5-3, 3-phenylpropyl (3R,4R and 3S,4S)-4-{4-carbamoyl-3-[(4-fluorophenyl)amino]-1H-pyrazol-1-yl}-3-cyanopiperidine-1-carboxylate]", "IC50": 1010}
{"molecule": "CC(C)COC(=O)N1CC[C@H](n2cc(C(N)=O)c(Nc3ccc(F)cc3)n2)[C@H](C#N)C1", "note": "(racemic) [Example 5-56, 2-methylpropyl (3R,4S and 3S,4R)-4-{4-carbamoyl-3-[(4-fluorophenyl)amino]-1H-pyrazol-1-yl}-3-cyanopiperidine-1-carboxylate]", "IC50": "> 1500"}
{"molecule": "N#C[C@@H]1CS(=O)(=O)CC1n1cc(C(N)=O)c(Nc2ccc(S(=O)(=O)C(F)(F)F)cc2)n1", "note": "(mixture of isomers) [Example 8-7, 1-((3S,4R and 3R,4S)-4-cyano-1,1-dioxidotetrahydrothiophen-3-yl)-3-((4-((trifluoromethyl)sulfonyl)phenyl)amino)-1H-pyrazole-4-carboxamide]", "IC50": 15}
{"molecule": "N#C[C@H]1CS(=O)(=O)CC1n1cc(C(N)=O)c(Nc2ccc(F)cc2)n1", "note": "(mixture of isomers) [Example 8-5, 1-((3S,4S and 3R,4R)-4-cyano-1,1-dioxidotetrahydrothiophen-3-yl)-3-((4-fluorophenyl)amino)-1H-pyrazole-4-carboxamide]", "IC50": 32}
{"molecule": "N#C[C@@H]1CN(C(=O)OC2CCCCC2)CC[C@@H]1n1cc(C(N)=O)c(Nc2ccc(F)cc2)n1", "note": "(racemic) [Example 5-61, cyclohexyl (3R,4S and 3S,4R)-4-{4-carbamoyl-3-[(4-fluorophenyl)amino]-1H-pyrazol-1-yl}-3-cyanopiperidine-1-carboxylate]", "IC50": "> 1500"}
{"molecule": "N#C[C@@H]1CCOC[C@H]1n1cc(C(N)=O)c(Nc2ccc(Cl)nc2)n1", "note": "(single isomer, unassigned) [Example 9-28, 3-[(6-chloropyridin-3-yl)amino]-1-[(3S,4R or 3R,4S)-4-cyanotetrahydro-2H-pyran-3-yl]-1H-pyrazole-4-carboxamide]", "IC50": 4}
{"molecule": "CC(C)(C)OC(=O)N1CCC(n2cc(C(N)=O)c(Nc3ccc(F)cc3)n2)[C@@H](C#N)C1", "note": "(mixture of isomers) [Example 2-3, (3S,4S and 3R,4R)-tert-butyl 4-(4-carbamoyl-3-((4-fluorophenyl)amino)-1H-pyrazol-1-yl)-3-cyanopiperidine-1-carboxylate]", "IC50": 367}
{"molecule": "CN1CCN(CCOC(=O)N2CC[C@@H](n3cc(C(N)=O)c(Nc4ccc(F)cc4)n3)[C@H](C#N)C2)CC1", "note": "(racemic) [Example 5-24, 2-(4-methylpiperazin-1-yl)ethyl (3R,4R and 3S,4S)-4-{4-carbamoyl-3-[(4-fluorophenyl)amino]-1H-pyrazol-1-yl}-3-cyanopiperidine-1-carboxylate]", "IC50": 1070}
{"molecule": "N#C[C@@H]1CN(Cc2cscn2)CC[C@H]1n1cc(C(N)=O)c(Nc2ccc(F)cc2)n1", "note": "(racemic) [Example 6-27, 1-[(3R,4R and 3S,4S)-3-cyano-1-(1,3-thiazol-4-ylmethyl)piperidin-4-yl]-3-[(4-fluorophenyl)amino]-1H-pyrazole-4-carboxamide]", "IC50": 37}
{"molecule": "CCn1ccnc1CN1CC[C@@H](C#N)[C@H](n2cc(C(N)=O)c(Nc3ccc(F)cc3)n2)C1", "note": "(racemic) [Example 6-19, 1-{(3S,4R and 3R,4S)-4-cyano-1-[(1-ethyl-1H-imidazol-2-yl)methyl]piperidin-3-yl}-3-[(4-fluorophenyl)amino]-1H-pyrazole-4-carboxamide]", "IC50": 11}
{"molecule": "N#C[C@@H]1CCN(Cc2cc(F)ccn2)C[C@H]1n1cc(C(N)=O)c(Nc2ccc(F)cc2)n1", "note": "(racemic) [Example 6-7, 1-{(3S,4R and 3R,4S)-4-cyano-1-[(4-fluoropyridin-2-yl)methyl]piperidin-3-yl}-3-[(4-fluorophenyl)amino]-1H-pyrazole-4-carboxamide]", "IC50": 47}
{"molecule": "N#C[C@H]1CCOC[C@@H]1n1cc(C(N)=O)c(Nc2ccc(Cl)nc2)n1", "note": "(single isomer, unassigned) [Example 9-27, 3-[(6-chloropyridin-3-yl)amino]-1-[(3R,4S or 3S,4R)-4-cyanotetrahydro-2H-pyran-3-yl]-1H-pyrazole-4-carboxamide]", "IC50": 134}
{"molecule": "N#C[C@H]1CCOC[C@@H]1n1cc(C(N)=O)c(Nc2ccc(C(F)F)nc2)n1", "note": "(single isomer, unassigned) [Example 9-32, 1-[(3R,4S or 3S,4R)-4-cyanotetrahydro-2H-pyran-3-yl]-3-{[6-(difluoromethyl)pyridin-3-yl]amino}-1H-pyrazole-4-carboxamide]", "IC50": 134}
{"molecule": "CC1(COC(=O)N2CC[C@@H](n3cc(C(N)=O)c(Nc4ccc(F)cc4)n3)[C@H](C#N)C2)COC1", "note": "(racemic) [Example 5-33, (3-methyloxetan-3-yl)methyl (3R,4R and 3S,4S)-4-{4-carbamoyl-3-[(4-fluorophenyl)amino]-1H-pyrazol-1-yl}-3-cyanopiperidine-1-carboxylate]", "IC50": 413}
{"molecule": "CC(C)COC(=O)N1CC[C@@H](n2cc(C(N)=O)c(Nc3ccc(F)cc3)n2)[C@H](C#N)C1", "note": "(racemic) [Example 5-10, 2-methylpropyl (3R,4R and 3S,4S)-4-{4-carbamoyl-3-[(4-fluorophenyl)amino]-1H-pyrazol-1-yl}-3-cyanopiperidine-1-carboxylate]", "IC50": 755}
{"molecule": "N#C[C@@H]1CN(C(=O)OCc2ccccc2)CC[C@H]1n1cc(C(N)=O)c(Nc2ccc(F)cc2)n1", "note": "(racemic) [Example 5-12, benzyl (3R,4R and 3S,4S)-4-{4-carbamoyl-3-[(4-fluorophenyl)amino]-1H-pyrazol-1-yl}-3-cyanopiperidine-1-carboxylate]", "IC50": 369}
{"molecule": "N#C[C@@H]1CN(Cc2ncco2)CC[C@H]1n1cc(C(N)=O)c(Nc2ccc(F)cc2)n1", "note": "(racemic) [Example 6-29, 1-[(3R,4R and 3S,4S)-3-cyano-1-(1,3-oxazol-2-ylmethyl)piperidin-4-yl]-3-[(4-fluorophenyl)amino]-1H-pyrazole-4-carboxamide]", "IC50": 47}
{"molecule": "N#C[C@@H]1CCN(CC2CCC2)C[C@H]1n1cc(C(N)=O)c(Nc2ccc(F)cc2)n1", "note": "(racemic) [Example 6-12, 1-[(3S,4R and 3R,4S)-4-cyano-1-(cyclobutylmethyl)piperidin-3-yl]-3-[(4-fluorophenyl)amino]-1H-pyrazole-4-carboxamide]", "IC50": 33}
{"molecule": "CC1(COC(=O)N2CC[C@H](n3cc(C(N)=O)c(Nc4ccc(F)cc4)n3)[C@H](C#N)C2)COC1", "note": "(racemic) [Example 5-45, (3-methyloxetan-3-yl)methyl (3R,4S and 3S,4R)-4-{4-carbamoyl-3-[(4-fluorophenyl)amino]-1H-pyrazol-1-yl}-3-cyanopiperidine-1-carboxylate]", "IC50": "> 1500"}
{"molecule": "CN(C)C(=O)c1ccc(Nc2nn([C@H]3COCC[C@@H]3C#N)cc2C(N)=O)cc1", "note": "(single isomer, unassigned) [Example 9-34, 1-[(3R,4S or 3S,4R)-4-cyanotetrahydro-2H-pyran-3-yl]-3-{[4-(dimethylcarbamoyl)phenyl]amino}-1H-pyrazole-4-carboxamide]", "IC50": 0.2}
{"molecule": "COCCOC(=O)N1CC[C@@H](C#N)C(n2cc(C(N)=O)c(Nc3ccc(F)cc3)n2)C1", "note": "(mixture of isomers) [Example 5-83, 2-methoxyethyl (3S,4R and 3R,4S)-3-{4-carbamoyl-3-[(4-fluorophenyl)amino]-1H-pyrazol-1-yl}-4-cyanopiperidine-1-carboxylate]", "IC50": 120}
{"molecule": "CC(C)(C)OC(=O)N1CCC(n2cc(C(N)=O)c(Nc3ccc(F)cc3)n2)[C@H](C#N)C1", "note": "(mixture of isomers) [Example 2-2, (3R,4S and 3S,4R)-tert-butyl 4-(4-carbamoyl-3-((4-fluorophenyl)amino)-1H-pyrazol-1-yl)-3-cyanopiperidine-1-carboxylate]", "IC50": 841}
{"molecule": "CC1(COC(=O)N2CC[C@@H](C#N)C(n3cc(C(N)=O)c(Nc4ccc(F)cc4)n3)C2)COC1", "note": "(mixture of isomers) [Example 5-90, (3-methyloxetan-3-yl)methyl (3S,4R and 3R,4S)-3-{4-carbamoyl-3-[(4-fluorophenyl)amino]-1H-pyrazol-1-yl}-4-cyanopiperidine-1-carboxylate]", "IC50": 96}
{"target": "JAK2 (Homo sapiens (Human), UniProt O60674)", "assay": "Jak biochemical HTRF assay, JAK2", "conditions": "recombinant purified GST-tagged catalytic domain; HTRF format; [ATP] […]", "excerpt": "as §1, §2", "units": {"IC50": "nM"}}
{"molecule": "CC(C)(C)OC(=O)N1CC[C@H](n2cc(C(N)=O)c(Nc3ccccc3)n2)[C@H](C#N)C1", "note": "(mixture of isomers) [Example 1-1, tert-butyl(3R,4S and 3S,4R)-4-[4-(aminocarbonyl)-3-anilino-1H-pyrazol-1-yl]-3-cyanopiperidine-1-carboxylate]", "IC50": 1270}
{"molecule": "N#C[C@@H]1CS(=O)(=O)C[C@H]1n1cc(C(N)=O)c(Nc2ccc(F)cc2)n1", "note": "(single isomer, unassigned) [Example 12-1, 1-((3S,4R or 3R,4S)-4-Cyano-1,1-dioxidotetrahydrothiophen-3-yl)-3-((4-fluorophenyl)amino)-1H-pyrazole-4-carboxamide]", "IC50": "> 1500"}
{"molecule": "Cn1nccc1CN1CC[C@@H](n2cc(C(N)=O)c(Nc3ccc(F)cc3)n2)[C@H](C#N)C1", "note": "(mixture of isomers) [Example 6-32, 1-{(3R,4R and 3S,4S)-3-cyano-1-[(1-methyl-1H-pyrazol-5-yl)methyl]piperidin 4-yl}-3-[(4-fluorophenyl)amino]-1H-pyrazole-4-carboxamide]", "IC50": 35}
{"molecule": "N#C[C@@H]1CN(C(=O)OC2CCCCC2)CC[C@H]1n1cc(C(N)=O)c(Nc2ccc(F)cc2)n1", "note": "(mixture of isomers) [Example 5-17, cyclohexyl (3R,4R and 3S,4S)-4-{4-carbamoyl-3-[(4-fluorophenyl)amino]-1H-pyrazol-1-yl}-3-cyanopiperidine-1-carboxylate]", "IC50": 1230}
